Measured values: patent US20080109040A1, “METHOD OF TREATING ARRHYTHMIAS” (priority 2002, published 2008)

Molecular target: T1, rapidly activating component of the delayed rectifier current (IKr) (Canis lupus familiaris, UniProt Q9TSZ3)
T1 construct: Myocytes were isolated by enzymatic dissociation from a wedge-shaped section of the left ventricular free wall; endogenous in cells; host or cells: isolated canine left ventricular myocytes (epicardial and midmyocardial)
T1 sequence (Q9TSZ3 1-1158): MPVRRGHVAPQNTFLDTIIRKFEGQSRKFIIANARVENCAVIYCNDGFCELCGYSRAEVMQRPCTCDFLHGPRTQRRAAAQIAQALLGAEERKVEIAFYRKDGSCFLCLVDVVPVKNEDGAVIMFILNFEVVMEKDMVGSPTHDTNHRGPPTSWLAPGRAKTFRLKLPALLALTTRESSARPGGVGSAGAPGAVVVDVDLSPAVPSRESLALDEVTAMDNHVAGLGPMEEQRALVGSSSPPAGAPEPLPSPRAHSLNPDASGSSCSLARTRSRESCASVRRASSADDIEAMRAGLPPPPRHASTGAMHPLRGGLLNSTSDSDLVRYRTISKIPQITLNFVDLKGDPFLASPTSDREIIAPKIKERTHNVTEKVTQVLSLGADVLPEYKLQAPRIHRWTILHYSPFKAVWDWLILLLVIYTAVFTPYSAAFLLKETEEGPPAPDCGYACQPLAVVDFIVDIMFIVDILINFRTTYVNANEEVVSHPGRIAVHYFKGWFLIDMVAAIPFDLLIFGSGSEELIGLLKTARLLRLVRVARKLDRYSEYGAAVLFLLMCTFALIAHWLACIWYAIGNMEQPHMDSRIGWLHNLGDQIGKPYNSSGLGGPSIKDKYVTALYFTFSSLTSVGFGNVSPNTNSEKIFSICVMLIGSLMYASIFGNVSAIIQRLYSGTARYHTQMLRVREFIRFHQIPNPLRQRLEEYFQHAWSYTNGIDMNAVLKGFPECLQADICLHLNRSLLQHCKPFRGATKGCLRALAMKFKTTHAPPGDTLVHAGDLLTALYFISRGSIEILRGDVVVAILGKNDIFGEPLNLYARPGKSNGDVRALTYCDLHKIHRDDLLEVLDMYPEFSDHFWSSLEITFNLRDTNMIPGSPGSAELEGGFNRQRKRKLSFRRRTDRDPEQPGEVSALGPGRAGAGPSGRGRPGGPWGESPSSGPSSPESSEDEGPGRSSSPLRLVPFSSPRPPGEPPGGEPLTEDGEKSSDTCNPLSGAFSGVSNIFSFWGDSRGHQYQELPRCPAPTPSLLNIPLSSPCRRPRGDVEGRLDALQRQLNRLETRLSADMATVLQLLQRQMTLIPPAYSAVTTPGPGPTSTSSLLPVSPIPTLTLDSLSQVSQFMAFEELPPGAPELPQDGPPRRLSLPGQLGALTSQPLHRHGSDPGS
Assay: Whole cell voltage clamp of IKr tail current in isolated canine left ventricular myocytes
Type: cell-based
Experimental: Myocytes were isolated by enzymatic dissociation from a wedge-shaped section of the left ventricular free wall supplied by the left circumflex coronary artery. Cells from the epicardial and midmyocardial regions of the left ventricle were used in this study.
Inward rectifier potassium current (IK), slow delayed rectifier potassium current (IKs), and rapid delayed rectifier potassium current (IKr) were recorded at 37° C. using conventional whole cell voltage clamp configuration.
IK1 was measured using an external solution containing 3 μM ouabain and 5 μM nifedipine to block the sodium-potassium pump and L-type calcium current (ICa,L), respectively. […] 5 μM nifedipine was present in the external solution when IKr was being recorded.
Isolated myocytes were placed in a temperature controlled 0.5 ml chamber (Medical Systems, Greenvale, N.Y.) on the stage of an inverted microscope and superfused at a rate of 2 ml/min. […]
IKr was measured as the time-dependent tail current elicited at a potential of −40 mV following a short 250 ms depolarizing pulse to 30 mV. Data are presented as mean ±S.E.M. IK1 was recorded during 900 msec voltage steps applied from a holding potential of −40 mV to test potentials ranging from −100 mV to 0 mV, and was characterized as the 5 msec average of the steady state current at the end of the test pulse.

COc1ccccc1OCC(O)CN1CCN(CC(=O)Nc2c(C)cccc2C)CC1 (racemic) [ranolazine, N-(2,6-dimethylphenyl)-4-[2-hydroxy-3-(2-methoxyphenoxy)propyl]-1-piperazineacetamide]
Block of IKr (ranolazine 50 μM): almost completely blocked | IC50 (tail current at −40 mV after 250 msec pulse to 30 mV, read-out: IC50 for inhibition of IKr tail current): 11.5 µM
